ChEMBL document CHEMBL5625248, “Identification of unique indolylcyanoethylenyl sulfonylanilines as novel structural scaffolds of potential antibacterial agents” (Eur J Med Chem, 2023)
≈ marks a conversion by molar mass, not a printed value.

Tests used:
Assay type in all cases: functional
[1] = test system: Pseudomonas aeruginosa; experiment: Antibacterial activity against Pseudomonas aeruginosa ATCC 27853 assessed as inhibition of bacterial growth incubated for 18 hrs by two fold broth microdilution assay
[2] = test system: Acinetobacter baumannii; experiment: Antibacterial activity against Acinetobacter baumannii assessed as inhibition of bacterial growth incubated for 18 hrs by two fold broth microdilution assay
[3] = test system: Klebsiella pneumoniae; experiment: Antibacterial activity against Klebsiella pneumoniae assessed as inhibition of bacterial growth incubated for 18 hrs by two fold broth microdilution assay
[4] = test system: Staphylococcus aureus; experiment: Antibacterial activity against Staphylococcus aureus ATCC 25923 assessed as inhibition of bacterial growth incubated for 18 hrs by two fold broth microdilution assay
[5] = test system: Staphylococcus aureus; experiment: Antibacterial activity against Staphylococcus aureus ATCC 29213 assessed as inhibition of bacterial growth incubated for 18 hrs by two fold broth microdilution assay
[6] = test system: Escherichia coli; experiment: Antibacterial activity against Escherichia coli assessed as inhibition of bacterial growth incubated for 18 hrs by two fold broth microdilution assay
[7] = test system: Pseudomonas aeruginosa; experiment: Antibacterial activity against Pseudomonas aeruginosa assessed as inhibition of bacterial growth incubated for 18 hrs by two fold broth microdilution assay
[8] = test system: Escherichia coli; experiment: Antibacterial activity against Escherichia coli ATCC 25922 assessed as inhibition of bacterial growth incubated for 18 hrs by two fold broth microdilution assay
[9] = test system: Staphylococcus aureus; experiment: Antibacterial activity against methicilin-resistant Staphylococcus aureus N315 assessed as inhibition of bacterial growth incubated for 18 hrs by two fold broth microdilution assay
[10] = test system: Enterococcus faecalis; experiment: Antibacterial activity against Enterococcus faecalis assessed as inhibition of bacterial growth incubated for 18 hrs by two fold broth microdilution assay
[11] = test system: Staphylococcus aureus; experiment: Antibacterial activity against Staphylococcus aureus assessed as inhibition of bacterial growth incubated for 18 hrs by two fold broth microdilution assay

SMILES	MIC [1] [µg/mL]	MIC [2] [µg/mL]	MIC [3] [µg/mL]	MIC [4] [µg/mL]	MIC [5] [µg/mL]	MIC [6] [µg/mL]	MIC [7] [µg/mL]	MIC [8] [µg/mL]	MIC [9] [µg/mL]	MIC [10] [µg/mL]	MIC [11] [µg/mL]
CC(=O)Nc1ccc(S(=O)(=O)/C(C#N)=C/c2cn(CC(=O)N3CCOCC3)c3ccccc23)cc1	256 (≈ 520 µM)	128 (≈ 260 µM)	128 (≈ 260 µM)	64 (≈ 130 µM)	2 (≈ 4.06 µM)	256 (≈ 520 µM)	64 (≈ 130 µM)	128 (≈ 260 µM)	16 (≈ 32.5 µM)	64 (≈ 130 µM)	256 (≈ 520 µM)
CCN(CC)C(=O)Cn1cc(/C=C(\C#N)S(=O)(=O)c2ccc(NC(C)=O)cc2)c2ccccc21	256 (≈ 535 µM)	128 (≈ 267 µM)	64 (≈ 134 µM)	8 (≈ 16.7 µM)	2 (≈ 4.18 µM)	32 (≈ 66.9 µM)	32 (≈ 66.9 µM)	128 (≈ 267 µM)	128 (≈ 267 µM)	128 (≈ 267 µM)	256 (≈ 535 µM)
CC(=O)Nc1ccc(S(=O)(=O)/C(C#N)=C/c2c[nH]c3ccc([N+](=O)[O-])cc23)cc1	32 (≈ 78 µM)	8 (≈ 19.5 µM)	64 (≈ 156 µM)	128 (≈ 312 µM)	32 (≈ 78 µM)	64 (≈ 156 µM)	64 (≈ 156 µM)	64 (≈ 156 µM)	64 (≈ 156 µM)	32 (≈ 78 µM)	32 (≈ 78 µM)
CC(=O)Nc1ccc(S(=O)(=O)/C(C#N)=C/c2cn(CC(=O)OC(C)(C)C)c3ccccc23)cc1	128 (≈ 267 µM)	128 (≈ 267 µM)	128 (≈ 267 µM)	128 (≈ 267 µM)	16 (≈ 33.4 µM)	256 (≈ 534 µM)	128 (≈ 267 µM)	256 (≈ 534 µM)	256 (≈ 534 µM)	128 (≈ 267 µM)	128 (≈ 267 µM)
CC(=O)Nc1ccc(S(=O)(=O)/C(C#N)=C/c2cn(CCN3CCOCC3)c3ccccc23)cc1	8 (≈ 16.7 µM)	32 (≈ 66.9 µM)	256 (≈ 535 µM)	32 (≈ 66.9 µM)	32 (≈ 66.9 µM)	64 (≈ 134 µM)	4 (≈ 8.36 µM)	0.5 (≈ 1.04 µM)	32 (≈ 66.9 µM)	256 (≈ 535 µM)	128 (≈ 267 µM)
N#C/C(=C\c1cn(Cc2ccc([N+](=O)[O-])cc2)c2ccccc12)S(=O)(=O)c1ccc(N)cc1	128 (≈ 279 µM)	64 (≈ 140 µM)	64 (≈ 140 µM)	256 (≈ 558 µM)	128 (≈ 279 µM)	128 (≈ 279 µM)	64 (≈ 140 µM)	128 (≈ 279 µM)	128 (≈ 279 µM)	128 (≈ 279 µM)	256 (≈ 558 µM)
C#CCn1cc(/C=C(\C#N)S(=O)(=O)c2ccc(NC(C)=O)cc2)c2ccccc21	2 (≈ 4.96 µM)	8 (≈ 19.8 µM)	4 (≈ 9.91 µM)	4 (≈ 9.91 µM)	8 (≈ 19.8 µM)	8 (≈ 19.8 µM)	4 (≈ 9.91 µM)	2 (≈ 4.96 µM)	2 (≈ 4.96 µM)	4 (≈ 9.91 µM)	2 (≈ 4.96 µM)
CC(=O)Nc1ccc(S(=O)(=O)/C(C#N)=C/c2cn(CCO)c3ccccc23)cc1	8 (≈ 19.5 µM)	32 (≈ 78.2 µM)	2 (≈ 4.88 µM)	2 (≈ 4.88 µM)	2 (≈ 4.88 µM)	4 (≈ 9.77 µM)	4 (≈ 9.77 µM)	1 (≈ 2.44 µM)	32 (≈ 78.2 µM)	4 (≈ 9.77 µM)	2 (≈ 4.88 µM)
CCOC(=O)Cn1cc(/C=C(\C#N)S(=O)(=O)c2ccc(NC(C)=O)cc2)c2ccccc21	128 (≈ 283 µM)	128 (≈ 283 µM)	64 (≈ 142 µM)	64 (≈ 142 µM)	16 (≈ 35.4 µM)	32 (≈ 70.9 µM)	8 (≈ 17.7 µM)	256 (≈ 567 µM)	256 (≈ 567 µM)	128 (≈ 283 µM)	128 (≈ 283 µM)
CCCCn1cc(/C=C(\C#N)S(=O)(=O)c2ccc(NC(C)=O)cc2)c2ccccc21	8 (≈ 19 µM)	1 (≈ 2.37 µM)	8 (≈ 19 µM)	1 (≈ 2.37 µM)	8 (≈ 19 µM)	64 (≈ 152 µM)	4 (≈ 9.49 µM)	4 (≈ 9.49 µM)	256 (≈ 607 µM)	4 (≈ 9.49 µM)	2 (≈ 4.74 µM)
N#C/C(=C\c1c[nH]c2cccc(Cl)c12)S(=O)(=O)c1ccc(N)cc1	64 (≈ 179 µM)	16 (≈ 44.7 µM)	4 (≈ 11.2 µM)	128 (≈ 358 µM)	32 (≈ 89.4 µM)	256 (≈ 715 µM)	64 (≈ 179 µM)	64 (≈ 179 µM)	64 (≈ 179 µM)	32 (≈ 89.4 µM)	32 (≈ 89.4 µM)
CC(=O)Nc1ccc(S(=O)(=O)/C(C#N)=C/c2c[nH]c3cc(Br)ccc23)cc1	16 (≈ 36 µM)	16 (≈ 36 µM)	4 (≈ 9 µM)	128 (≈ 288 µM)	32 (≈ 72 µM)	128 (≈ 288 µM)	64 (≈ 144 µM)	64 (≈ 144 µM)	64 (≈ 144 µM)	32 (≈ 72 µM)	32 (≈ 72 µM)
CC(=O)Nc1ccc(S(=O)(=O)/C(C#N)=C/c2cn(Cc3ccc(F)cc3F)c3ccccc23)cc1	64 (≈ 130 µM)	16 (≈ 32.6 µM)	256 (≈ 521 µM)	32 (≈ 65.1 µM)	32 (≈ 65.1 µM)	128 (≈ 260 µM)	64 (≈ 130 µM)	32 (≈ 65.1 µM)	64 (≈ 130 µM)	256 (≈ 521 µM)	8 (≈ 16.3 µM)
CC(=O)Nc1ccc(S(=O)(=O)/C(C#N)=C/c2c[nH]c3cccc(Cl)c23)cc1	32 (≈ 80 µM)	16 (≈ 40 µM)	4 (≈ 10 µM)	128 (≈ 320 µM)	32 (≈ 80 µM)	128 (≈ 320 µM)	64 (≈ 160 µM)	16 (≈ 40 µM)	64 (≈ 160 µM)	32 (≈ 80 µM)	32 (≈ 80 µM)
CCCCCCCCn1cc(/C=C(\C#N)S(=O)(=O)c2ccc(N)cc2)c2ccccc21	32 (≈ 73.5 µM)	32 (≈ 73.5 µM)	4 (≈ 9.18 µM)	32 (≈ 73.5 µM)	16 (≈ 36.7 µM)	128 (≈ 294 µM)	64 (≈ 147 µM)	64 (≈ 147 µM)	256 (≈ 588 µM)	32 (≈ 73.5 µM)	128 (≈ 294 µM)
CCCCn1cc(/C=C(\C#N)S(=O)(=O)c2ccc(N)cc2)c2ccccc21	4 (≈ 10.5 µM)	256 (≈ 675 µM)	1 (≈ 2.64 µM)	2 (≈ 5.27 µM)	1 (≈ 2.64 µM)	4 (≈ 10.5 µM)	2 (≈ 5.27 µM)	4 (≈ 10.5 µM)	256 (≈ 675 µM)	4 (≈ 10.5 µM)	2 (≈ 5.27 µM)
CC(=O)Nc1ccc(S(=O)(=O)/C(C#N)=C/c2cn(CC3CC3)c3ccccc23)cc1	64 (≈ 153 µM)	16 (≈ 38.1 µM)	64 (≈ 153 µM)	64 (≈ 153 µM)	64 (≈ 153 µM)	16 (≈ 38.1 µM)	32 (≈ 76.3 µM)	32 (≈ 76.3 µM)	32 (≈ 76.3 µM)	64 (≈ 153 µM)	256 (≈ 610 µM)
CCCCCCn1cc(/C=C(\C#N)S(=O)(=O)c2ccc(N)cc2)c2ccccc21	8 (≈ 19.6 µM)	8 (≈ 19.6 µM)	128 (≈ 314 µM)	2 (≈ 4.91 µM)	4 (≈ 9.82 µM)	8 (≈ 19.6 µM)	8 (≈ 19.6 µM)	64 (≈ 157 µM)	32 (≈ 78.5 µM)	4 (≈ 9.82 µM)	256 (≈ 628 µM)
CC(=O)Nc1ccc(S(=O)(=O)/C(C#N)=C/c2cn(CC(=O)N3CCCC3)c3ccccc23)cc1	128 (≈ 269 µM)	64 (≈ 134 µM)	64 (≈ 134 µM)	128 (≈ 269 µM)	16 (≈ 33.6 µM)	64 (≈ 134 µM)	64 (≈ 134 µM)	128 (≈ 269 µM)	256 (≈ 537 µM)	128 (≈ 269 µM)	128 (≈ 269 µM)
CCn1cc(C(=O)O)c(=O)c2cc(F)c(N3CCNCC3)cc21 [NORFLOXACIN]	4 (≈ 12.5 µM)	4 (≈ 12.5 µM)	2 (≈ 6.26 µM)	2 (≈ 6.26 µM)	1 (≈ 3.13 µM)	4 (≈ 12.5 µM)	2 (≈ 6.26 µM)	4 (≈ 12.5 µM)	8 (≈ 25.1 µM)	4 (≈ 12.5 µM)	2 (≈ 6.26 µM)
